Results published in patent publication US12065442B2, “Tropomyosin receptor kinase (TRK) degradation compounds and methods of use” (Cullgen (Shanghai), Inc., priority 2018, dated 2024).

The compounds below were run on KM12 cells (assay: Cell viability assay (CellTiter-Glo) in KM12 cells). Details: Homo sapiens, 72 h; Table 2; KM12 cell viability, CellTiter-Glo, 3 days; read-out: IC50.
Type: cell-based

Question: For `Cc1ncsc1-c1ccc(CNC(=O)[C@@H]2C[C@@H](O)CN2C(=O)[C@@H](NC(=O)COCCOCCOCCOCCOCC(=O)N2CCN(c3cccc(-c4cnc5ccc(N6CCC[C@@H]6c6cccc(F)c6)nn45)n3)CC2)C(C)(C)C)cc1` [CPD-003, (2S,4R)-1-((S)-2-(tert-butyl)-20-(4-(6-(6-((R)-2-(3-Fluorophenyl)pyrrolidin-1-yl)imidazo[1,2-b]pyridazin-3-yl)pyridin-2-yl)piperazin-1-yl)-4,20-dioxo-6,9,12,15,18-pentaoxa-3-azaicosanoyl)-4-hydroxy-N-(4-(4-methylthiazol-5-yl)benzyl)pyrrolidine-2-carboxamide], which IC50 is on record?
Answer: The IC50 was > 1000 nM.

Question: How did the IC50 turn out when `Cc1ncsc1-c1ccc(CNC(=O)[C@@H]2C[C@@H](O)CN2C(=O)[C@@H](NC(=O)COCCOCC(=O)N2CCN(c3ccc(C(=O)Nc4n[nH]c5ccc(Cc6cc(F)cc(F)c6)cc45)c(NC4CCOCC4)c3)CC2)C(C)(C)C)cc1` [CPD-042, (2S,4R)-1-((S)-2-(2-(2-(2-(4-(4-((5-(3,5-Difluorobenzyl)-1H-indazol-3-yl)carbamoyl)-3-((tetrahydro-2H-pyran-4-yl)amino)phenyl)piperazin-1-yl)-2-oxoethoxy)ethoxy)acetamido)-3,3-dimethylbutanoyl)-4-hydroxy-N-(4-(4-methylthiazol-5-yl)benzyl)pyrrolidine-2-carboxamide] was run?
Answer: Its IC50 is > 1000 nM.

Question: For `O=C1CCC(N2C(=O)c3cccc(NCCC(=O)N4CCN(c5cccc(-c6cnc7ccc(N8CCC[C@@H]8c8cccc(F)c8)nn67)n5)CC4)c3C2=O)C(=O)N1` (stereo partly drawn) [CPD-026, 2-(2,6-Dioxopiperidin-3-yl)-4-((3-(4-(6-(6-((R)-2-(3-fluorophenyl)pyrrolidin-1-yl)imidazo[1,2-b]pyridazin-3-yl)pyridin-2-yl)piperazin-1-yl)-3-oxopropyl)amino)isoindoline-1,3-dione], which IC50 is on record?
Answer: The IC50 was 82.3 nM.

Same assay, conditions: Homo sapiens, 72 h; Table 3; KM12 cell viability, CellTiter-Glo, 3 days; read-out: IC50

Question: `O=C(CN1CCN(c2cccc(-c3cnc4ccc(N5CCC[C@@H]5c5cccc(F)c5)nn34)n2)CC1)NCCCCCCCNc1cccc2c1C(=O)N(C1CCC(=O)NC1=O)C2=O` (stereo partly drawn) [TR-110, N-(7-((2-(2,6-dioxopiperidin-3-yl)-1,3-dioxoisoindolin-4-yl)amino)heptyl)-2-(4-(6-(6-((R)-2-(3-fluorophenyl)pyrrolidin-1-yl)imidazo[1,2-b]pyridazin-3-yl)pyridin-2-yl)piperazin-1-yl)acetamide] was tested. Which IC50 did it give?
Answer: Its IC50 is 35.9 nM.

Question: Which IC50 does the source give for `O=C1CCC(N2C(=O)c3ccc(NCCOCCOCCOCCOCCC(=O)N4CCN(c5ccc(C(=O)Nc6n[nH]c7ccc(Cc8cc(F)cc(F)c8)cc67)c(NC6CCOCC6)c5)CC4)cc3C2=O)C(=O)N1` (centres unmarked) [TR-140, N-(5-(3,5-Difluorobenzyl)-1H-indazol-3-yl)-4-(4-(1-((2-(2,6-dioxopiperidin-3-yl)-1,3-dioxoisoindolin-5-yl)amino)-3,6,9,12-tetraoxapentadecan-15-oyl)piperazin-1-yl)-2-((tetrahydro-2H-pyran-4-yl)amino)benzamide] here?
Answer: Its IC50 is 1.6 nM.

Question: How did the IC50 turn out when `O=C(CN1CCN(c2ccc(C(=O)Nc3n[nH]c4ccc(Cc5cc(F)cc(F)c5)cc34)c(NC3CCOCC3)c2)CC1)NCCCCNc1ccc2c(c1)C(=O)N(C1CCC(=O)NC1=O)C2=O` (centres unmarked) [TR-156, N-(5-(3,5-Difluorobenzyl)-1H-indazol-3-yl)-4-(4-(2-((4-((2-(2,6-dioxopiperidin-3-yl)-1,3-dioxoisoindolin-5-yl)amino)butyl)amino)-2-oxoethyl)piperazin-1-yl)-2-((tetrahydro-2H-pyran-4-yl)amino)benzamide] was run?
Answer: Its IC50 is 3.3 nM.

Question: How did the IC50 turn out when `O=C(CN1CCN(c2cccc(-c3cnc4ccc(N5CCC[C@@H]5c5cccc(F)c5)nn34)n2)CC1)NCCCCCCNc1cccc2c1C(=O)N(C1CCC(=O)NC1=O)C2=O` (stereo partly drawn) [TR-111, N-(6-((2-(2,6-dioxopiperidin-3-yl)-1,3-dioxoisoindolin-4-yl)amino)hexyl)-2-(4-(6-(6-((R)-2-(3-fluorophenyl)pyrrolidin-1-yl)imidazo[1,2-b]pyridazin-3-yl)pyridin-2-yl)piperazin-1-yl)acetamide] was run?
Answer: The IC50 was 19.7 nM.

Question: `O=C1CCC(N2C(=O)c3ccc(NCCC(=O)N4CCN(c5ccc(C(=O)Nc6n[nH]c7ccc(Cc8cc(F)cc(F)c8)cc67)c(NC6CCOCC6)c5)CC4)cc3C2=O)C(=O)N1` (centres unmarked) [TR-145, N-(5-(3,5-Difluorobenzyl)-1H-indazol-3-yl)-4-(4-(3-((2-(2,6-dioxopiperidin-3-yl)-1,3-dioxoisoindolin-5-yl)amino)propanoyl)piperazin-1-yl)-2-((tetrahydro-2H-pyran-4-yl)amino)benzamide] was tested. Which IC50 did it give?
Answer: Its IC50 is 3.1 nM.

Question: With `O=C1CCC(N2C(=O)c3ccc(NCCCC(=O)N4CCN(c5cccc(-c6cnc7ccc(N8CCC[C@@H]8c8cccc(F)c8)nn67)n5)CC4)cc3C2=O)C(=O)N1` (stereo partly drawn) [TR-168, 2-(2,6-Dioxopiperidin-3-yl)-5-((4-(4-(6-(6-((R)-2-(3-fluorophenyl)pyrrolidin-1-yl)imidazo[1,2-b]pyridazin-3-yl)pyridin-2-yl)piperazin-1-yl)-4-oxobutyl)amino)isoindoline-1,3-dione] as the compound, how does the IC50 read?
Answer: The IC50 was 2.9 nM.

Question: With `O=C(CN1CCN(c2cccc(-c3cnc4ccc(N5CCC[C@@H]5c5cccc(F)c5)nn34)n2)CC1)NCCOCCNc1cccc2c1C(=O)N(C1CCC(=O)NC1=O)C2=O` (stereo partly drawn) [TR-106, N-(2-(2-((2-(2,6-dioxopiperidin-3-yl)-1,3-dioxoisoindolin-4-yl)amino)ethoxy)ethyl)-2-(4-(6-(6-((R)-2-(3-fluorophenyl)pyrrolidin-1-yl)imidazo[1,2-b]pyridazin-3-yl)pyridin-2-yl)piperazin-1-yl)acetamide] as the compound, how does the IC50 read?
Answer: Its IC50 is 3.8 nM.

Question: How did the IC50 turn out when `O=C1CCC(N2C(=O)c3ccc(N4CCN(c5cccc(-c6cnc7ccc(N8CCC[C@@H]8c8cccc(F)c8)nn67)n5)CC4)cc3C2=O)C(=O)N1` (stereo partly drawn) [TR-170, 2-(2,6-Dioxopiperidin-3-yl)-5-(4-(6-(6-((R)-2-(3-fluorophenyl)pyrrolidin-1-yl)imidazo[1,2-b]pyridazin-3-yl)pyridin-2-yl)piperazin-1-yl)isoindoline-1,3-dione] was run?
Answer: Its IC50 is 15.1 nM.

Question: Which IC50 does the source give for `O=C1CCC(N2Cc3ccc(NCCN4CCN(c5cccc(-c6cnc7ccc(N8CCC[C@@H]8c8cccc(F)c8)nn67)n5)CC4)cc3C2=O)C(=O)N1` (stereo partly drawn) [TR-196, 3-(6-((2-(4-(6-(6-((R)-2-(3-fluorophenyl)pyrrolidin-1-yl)imidazo[1,2-b]pyridazin-3-yl)pyridin-2-yl)piperazin-1-yl)ethyl)amino)-1-oxoisoindolin-2-yl)piperidine-2,6-dione] here?
Answer: The IC50 was 3.1 nM.

Question: With `O=C1CCC(N2C(=O)c3ccc(NCCOCCOCCOCCOCCOCCC(=O)N4CCN(c5cccc(-c6cnc7ccc(N8CCC[C@@H]8c8cccc(F)c8)nn67)n5)CC4)cc3C2=O)C(=O)N1` (stereo partly drawn) [TR-116, 2-(2,6-Dioxopiperidin-3-yl)-5-((18-(4-(6-(6-((R)-2-(3-fluorophenyl)pyrrolidin-1-yl)imidazo[1,2-b]pyridazin-3-yl)pyridin-2-yl)piperazin-1-yl)-18-oxo-3,6,9,12,15-pentaoxaoctadecyl)amino)isoindoline-1,3-dione] as the compound, how does the IC50 read?
Answer: Its IC50 is 2 nM.

Question: Which IC50 does the source give for `O=C1CCC(N2C(=O)c3ccc(NCCC4CN(c5cccc(-c6cnc7ccc(N8CCC[C@@H]8c8cccc(F)c8)nn67)n5)C4)cc3C2=O)C(=O)N1` (stereo partly drawn) [TR-193, 2-(2,6-Dioxopiperidin-3-yl)-5-((2-(1-(6-(6-((R)-2-(3-fluorophenyl)pyrrolidin-1-yl)imidazo[1,2-b]pyridazin-3-yl)pyridin-2-yl)azetidin-3-yl)ethyl)amino)isoindoline-1,3-dione] here?
Answer: The IC50 was 1100 nM.

Question: How did the IC50 turn out when `O=C(CN1CCN(c2cccc(-c3cnc4ccc(N5CCC[C@@H]5c5cccc(F)c5)nn34)n2)CC1)NCCOCCNc1ccc2c(c1)C(=O)N(C1CCC(=O)NC1=O)C2=O` (stereo partly drawn) [TR-135, N-(2-(2-((2-(2,6-dioxopiperidin-3-yl)-1,3-dioxoisoindolin-5-yl)amino)ethoxy)ethyl)-2-(4-(6-(6-((R)-2-(3-fluorophenyl)pyrrolidin-1-yl)imidazo[1,2-b]pyridazin-3-yl)pyridin-2-yl)piperazin-1-yl)acetamide] was run?
Answer: Its IC50 is 0.9 nM.

Same assay, conditions: Homo sapiens, 72 h; Table 4; KM12 cell viability, CellTiter-Glo, 3 days; read-out: IC50

Question: With `O=C1CCC(N2Cc3cc(N4CCN(c5cccc(-c6cnc7ccc(N8CCC[C@@H]8c8cccc(F)c8)nn67)n5)CC4)ccc3C2=O)C(=O)N1` (stereo partly drawn) [TR-207, 3-(5-(4-(6-(6-((R)-2-(3-Fluorophenyl)pyrrolidin-1-yl)imidazo[1,2-b]pyridazin-3-yl)pyridin-2-yl)piperazin-1-yl)-1-oxoisoindolin-2-yl)piperidine-2,6-dione] as the compound, how does the IC50 read?
Answer: Its IC50 is 31.3 nM.

Question: Which IC50 does the source give for `O=C1CCC(N2Cc3cc(NC4CN(c5cccc(-c6cnc7ccc(N8CCC[C@@H]8c8cccc(F)c8)nn67)n5)C4)ccc3C2=O)C(=O)N1` (stereo partly drawn) [TR-206, 3-(5-((1-(6-(6-((R)-2-(3-Fluorophenyl)pyrrolidin-1-yl)imidazo[1,2-b]pyridazin-3-yl)pyridin-2-yl)azetidin-3-yl)amino)-1-oxoisoindolin-2-yl)piperidine-2,6-dione] here?
Answer: The IC50 was 15.8 nM.

Question: How did the IC50 turn out when `Cn1c(=O)n(C2CCC(=O)NC2=O)c2cccc(OCCN3CCN(c4cccc(-c5cnc6ccc(N7CCC[C@@H]7c7cccc(F)c7)nn56)n4)CC3)c21` (stereo partly drawn) [TR-244, 3-(4-(2-(4-(6-(6-((R)-2-(3-fluorophenyl)pyrrolidin-1-yl)imidazo[1,2-b]pyridazin-3-yl)pyridin-2-yl)piperazin-1-yl)ethoxy)-3-methyl-2-oxo-2,3-dihydro-1H-benzo[d]imidazol-1-yl)piperidine-2,6-dione] was run?
Answer: Its IC50 is 298 nM.

Question: How did the IC50 turn out when `Cn1c(=O)n(C2CCC(=O)NC2=O)c2cccc(C#CCCN3CCN(c4cccc(-c5cnc6ccc(N7CCC[C@@H]7c7cccc(F)c7)nn56)n4)CC3)c21` (stereo partly drawn) [TR-239, 3-(4-(4-(4-(6-(6-((R)-2-(3-fluorophenyl)pyrrolidin-1-yl)imidazo[1,2-b]pyridazin-3-yl)pyridin-2-yl)piperazin-1-yl)but-1-yn-1-yl)-3-methyl-2-oxo-2,3-dihydro-1H-benzo[d]imidazol-1-yl)piperidine-2,6-dione] was run?
Answer: Its IC50 is 46 nM.

Question: Which IC50 does the source give for `O=C1CCC(N2C(=O)c3ccc(NCCN4CCN(c5ccc(C(=O)Nc6n[nH]c7ccc(Cc8cc(F)cc(F)c8)cc67)c(NC6CCOCC6)c5)CC4)cc3C2=O)C(=O)N1` (centres unmarked) [TR-232, N-(5-(3,5-Difluorobenzyl)-1H-indazol-3-yl)-4-(4-(2-((2-(2,6-dioxopiperidin-3-yl)-1,3-dioxoisoindolin-5-yl)amino)ethyl)piperazin-1-yl)-2-((tetrahydro-2H-pyran-4-yl)amino)benzamide] here?
Answer: Its IC50 is 2.6 nM.
